According to ChEMBL document CHEMBL1158651, “Centaurepensin: A Cytotoxic Constituent of Centaurea solstitialis and C. repens (Asteraceae)” (1979):
Converted amounts (≈) assume the structure as drawn.

Assay: Cytotoxicity against human 9KB cells
Format: functional
Conditions: read-out: ED50 (the source's name)

In the case of `C=C1C(=O)O[C@H]2[C@H]1[C@@H](OC(=O)[C@](C)(O)CCl)CC(=C)[C@@H]1C[C@H](O)[C@](O)(CCl)[C@H]21` [CENTAUREPENSIN], the EC50 is reported as 1.7 µg/mL (≈ 3.91 µM).
